Experimental data published in US20220227796A1, “EGFR INHIBITORS, COMPOSITIONS AND METHODS THERE OF” (Betta Pharmaceuticals Co., Ltd., priority 2019, published 2022).
Structures can show the parent of a compound that is named as a salt.

Columns and labels:
EGFR Δ19del/T790M/C797S = EGFR Δ19del/T790M/C797S (Homo sapiens, UniProt P00533, T790M/C797S, form not given); experiment: Kinase assay (mobility shift) for EGFR Δ19del/T790M/C797S; assay type: biochemical; settings: read-out: EGFR Δ 19del/T790M/C797S IC50
EGFR Δ19del/T790M/C797S, sequence (P00533 with tags, fused parts or gaps DEL746-750/T790M/C797S, form open): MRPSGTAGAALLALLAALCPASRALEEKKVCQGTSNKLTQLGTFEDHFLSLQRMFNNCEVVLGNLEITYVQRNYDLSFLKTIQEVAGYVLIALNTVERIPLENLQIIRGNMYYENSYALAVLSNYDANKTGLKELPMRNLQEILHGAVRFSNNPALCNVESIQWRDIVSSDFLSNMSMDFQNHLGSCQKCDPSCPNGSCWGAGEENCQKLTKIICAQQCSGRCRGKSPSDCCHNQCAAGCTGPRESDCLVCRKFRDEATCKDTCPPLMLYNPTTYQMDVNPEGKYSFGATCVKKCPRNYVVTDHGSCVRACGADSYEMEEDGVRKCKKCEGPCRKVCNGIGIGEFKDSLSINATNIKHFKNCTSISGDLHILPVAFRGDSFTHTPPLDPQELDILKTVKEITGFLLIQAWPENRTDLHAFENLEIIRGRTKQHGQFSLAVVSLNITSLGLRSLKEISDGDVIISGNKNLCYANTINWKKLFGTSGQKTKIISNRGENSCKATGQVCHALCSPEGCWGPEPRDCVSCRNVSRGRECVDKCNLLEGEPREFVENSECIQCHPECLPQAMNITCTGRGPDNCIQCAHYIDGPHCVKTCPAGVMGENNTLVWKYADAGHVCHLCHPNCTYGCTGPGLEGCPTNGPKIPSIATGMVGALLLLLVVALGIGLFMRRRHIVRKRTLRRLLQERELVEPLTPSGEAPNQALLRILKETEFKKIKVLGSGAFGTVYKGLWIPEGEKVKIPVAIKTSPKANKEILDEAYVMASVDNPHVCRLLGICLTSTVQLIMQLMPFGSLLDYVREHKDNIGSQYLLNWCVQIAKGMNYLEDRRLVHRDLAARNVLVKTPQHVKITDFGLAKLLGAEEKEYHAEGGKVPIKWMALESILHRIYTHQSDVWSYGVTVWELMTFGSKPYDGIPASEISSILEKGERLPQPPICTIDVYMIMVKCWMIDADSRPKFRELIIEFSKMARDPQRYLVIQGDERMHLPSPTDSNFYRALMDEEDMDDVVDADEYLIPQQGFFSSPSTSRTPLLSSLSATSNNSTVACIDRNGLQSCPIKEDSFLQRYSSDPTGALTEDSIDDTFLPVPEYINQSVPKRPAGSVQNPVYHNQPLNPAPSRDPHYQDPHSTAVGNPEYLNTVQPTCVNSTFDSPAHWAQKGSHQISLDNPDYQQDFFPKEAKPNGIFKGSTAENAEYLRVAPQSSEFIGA
Method: (§1) Enzyme reaction protocol are as followed:
(§2) 1. Preparing 1* Kinase buffer as followed.
(§3) 2. Preparing Compound Concentration Gradient: Compounds were tested at a concentration of 300 nM, diluted to 100-fold final concentration in 100% DMSO solution in 96-well plates, and compounds were diluted 3 times with Precision, 10 concentrations. Each concentration of the compound was then further diluted to a 5-fold final concentration of the intermediate dilution solution using 1* Kinase buffer.
(§4) 3. 5 μL of each of the prepared intermediate dilution compounds was separately added to the compound wells of the 384-well plate, and each concentration was tested for duplicate wells; 5 μL of 5% DMSO was added to the negative control wells and the positive control wells, respectively.
(§5) 4. 2.5-fold final concentration of the kinase solution was prepared using 1*Kinase buffer.
(§6) 6. Centrifuge at 1000 rpm for 30 seconds, shake the reaction plate and incubate for 10 minutes at room temperature.
(§7) 8. 10 μL of a 2.5-fold final concentration of a mixed solution of ATP and a substrate was added to initiate the reaction.
(§8) 9. Centrifuge the 384-well plate at 1000 rpm for 30 seconds, mix by shaking, and incubate at room temperature for the corresponding time.
(§9) 10. Add 30 μL of the stop solution to stop the kinase reaction, centrifuge at 1000 rpm for 30 seconds, and mix by shaking.
(§10) 11. Read the conversion rate with Caliper EZ Reader.
(§11) Convert conversion values to inhibition values:
(§12) Percent inhibition=(max−conversion % sample)/(max−min)*100.
(§13) “max” stands for the mean value of the positive control well ratio; “min” stands for the mean value of the negative control well; conversion % sample: sample conversion reading.
(§14) Fit the data in log(inhibitor) vs. response Variable slope of GraphPad Prism 5 to obtain IC50 values.
(§15) Equation used is: Y=Bottom+(Top−Bottom)/(1+(IC50/X)*HillSlope)

EGFR L858R = EGFR L858R (Homo sapiens, UniProt P00533, L858R); experiment: Kinase assay (mobility shift) for EGFR L858R; assay type: biochemical
EGFR L858R, sequence (P00533 25-1210 L858R): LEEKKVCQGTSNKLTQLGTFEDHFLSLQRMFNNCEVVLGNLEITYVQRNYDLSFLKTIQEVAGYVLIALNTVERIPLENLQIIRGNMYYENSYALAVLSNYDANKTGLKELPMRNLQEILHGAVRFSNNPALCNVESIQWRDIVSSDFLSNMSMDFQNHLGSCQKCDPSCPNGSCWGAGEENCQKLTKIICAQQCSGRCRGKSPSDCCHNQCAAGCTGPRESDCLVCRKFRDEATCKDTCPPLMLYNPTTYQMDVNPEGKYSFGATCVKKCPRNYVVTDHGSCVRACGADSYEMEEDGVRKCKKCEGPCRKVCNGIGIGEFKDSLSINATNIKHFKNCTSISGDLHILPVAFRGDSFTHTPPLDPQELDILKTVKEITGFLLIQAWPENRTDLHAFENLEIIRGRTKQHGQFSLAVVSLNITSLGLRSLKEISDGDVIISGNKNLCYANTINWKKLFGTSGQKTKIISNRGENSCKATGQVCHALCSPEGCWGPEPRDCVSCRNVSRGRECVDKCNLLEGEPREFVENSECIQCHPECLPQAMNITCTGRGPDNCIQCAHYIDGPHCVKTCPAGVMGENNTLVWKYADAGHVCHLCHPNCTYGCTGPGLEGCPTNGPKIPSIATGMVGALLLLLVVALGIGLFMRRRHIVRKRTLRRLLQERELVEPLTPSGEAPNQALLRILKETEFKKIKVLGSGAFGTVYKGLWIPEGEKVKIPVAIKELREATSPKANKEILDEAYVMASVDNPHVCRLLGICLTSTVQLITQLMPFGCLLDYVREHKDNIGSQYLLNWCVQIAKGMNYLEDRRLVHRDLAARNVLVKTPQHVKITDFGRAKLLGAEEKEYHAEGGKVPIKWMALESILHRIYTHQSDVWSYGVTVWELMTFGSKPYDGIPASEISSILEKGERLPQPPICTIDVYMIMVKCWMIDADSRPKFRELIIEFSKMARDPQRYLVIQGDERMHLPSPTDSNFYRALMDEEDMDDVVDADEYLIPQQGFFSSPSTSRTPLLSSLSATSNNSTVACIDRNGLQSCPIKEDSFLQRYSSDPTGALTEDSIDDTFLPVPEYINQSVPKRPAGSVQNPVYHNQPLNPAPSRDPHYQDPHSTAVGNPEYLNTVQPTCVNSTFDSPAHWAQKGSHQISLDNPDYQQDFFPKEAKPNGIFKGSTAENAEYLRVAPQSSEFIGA
Method: as §1, §2, §3, §4, §5, §6, §7, §8, §9, §10, §11, §12, §13, §14, §15

EGFR T790M/L858R = EGFR T790M/L858R (Homo sapiens, UniProt P00533, L858R/T790M); experiment: Kinase assay (mobility shift) for EGFR T790M/L858R; assay type: biochemical
EGFR T790M/L858R, sequence (P00533 25-1210 T790M/L858R): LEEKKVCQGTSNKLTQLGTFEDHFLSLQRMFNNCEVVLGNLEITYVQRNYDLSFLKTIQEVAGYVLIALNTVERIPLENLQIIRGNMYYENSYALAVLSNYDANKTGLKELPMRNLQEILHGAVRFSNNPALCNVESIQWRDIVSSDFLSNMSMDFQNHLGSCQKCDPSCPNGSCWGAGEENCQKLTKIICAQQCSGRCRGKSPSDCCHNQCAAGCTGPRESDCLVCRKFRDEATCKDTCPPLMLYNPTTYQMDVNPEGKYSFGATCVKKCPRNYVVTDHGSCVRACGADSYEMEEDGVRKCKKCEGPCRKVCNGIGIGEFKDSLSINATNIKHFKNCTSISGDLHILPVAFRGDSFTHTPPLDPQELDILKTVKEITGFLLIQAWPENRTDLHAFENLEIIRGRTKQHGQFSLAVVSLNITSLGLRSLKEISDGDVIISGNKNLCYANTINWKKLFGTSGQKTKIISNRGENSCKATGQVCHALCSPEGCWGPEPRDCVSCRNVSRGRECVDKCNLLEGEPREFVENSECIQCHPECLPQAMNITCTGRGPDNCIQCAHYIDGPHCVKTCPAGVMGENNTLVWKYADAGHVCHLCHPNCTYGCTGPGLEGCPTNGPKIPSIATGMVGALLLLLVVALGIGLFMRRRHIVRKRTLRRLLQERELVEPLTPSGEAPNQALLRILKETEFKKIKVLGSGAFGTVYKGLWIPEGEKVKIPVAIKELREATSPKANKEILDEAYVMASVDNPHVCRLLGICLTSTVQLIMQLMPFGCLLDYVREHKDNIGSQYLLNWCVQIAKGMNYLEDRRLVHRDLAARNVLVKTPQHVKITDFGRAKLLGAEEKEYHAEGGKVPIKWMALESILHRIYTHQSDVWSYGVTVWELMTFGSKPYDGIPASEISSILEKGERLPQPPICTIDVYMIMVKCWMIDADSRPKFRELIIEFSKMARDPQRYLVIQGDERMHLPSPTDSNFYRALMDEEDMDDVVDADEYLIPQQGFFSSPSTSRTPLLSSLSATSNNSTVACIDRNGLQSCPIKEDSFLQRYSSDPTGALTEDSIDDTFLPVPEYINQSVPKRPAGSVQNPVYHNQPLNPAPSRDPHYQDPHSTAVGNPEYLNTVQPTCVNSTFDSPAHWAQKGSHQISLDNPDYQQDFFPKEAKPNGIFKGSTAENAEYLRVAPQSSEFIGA
Method: as §1, §2, §3, §4, §5, §6, §7, §8, §9, §10, §11, §12, §13, §14, §15

HCC827(Δ19del) = experiment: HCC827 cells proliferation assay; assay type: cell-based; settings: Homo sapiens, HCC827; cell proliferation, 72 h, CellTiter Glo; class symbols; read-out: HCC827 IC50
Method: (§16) Test 3 H1975 and HCC827 Cells Proliferation Assay
(§17) a) The medium was preheated in a 37° C. water bath in advance.
(§18) b) Remove the cryogenic vials from the liquid nitrogen tank, quickly put it into a 37° C. water bath, and completely melt it in 1 min.
(§19) c) Transfer the cell suspension to a 15 mL centrifuge tube containing 8 mL medium, centrifuge 1000 rpm, 5 min.
(§20) d) Discard the supernatant, resuspend the cells in 1 mL medium, and transfer to a 75 cm^2 flask containing 15 mL medium, culture the cells in an incubator at 37° C., 5% CO2.
(§21) b) Collect cell to a 15 mL centrifuged tube, centrifuge at 1000 rpm for 5 min. Discard the supernatant, count, and make the cell density at 1×10^4 cells/mL, then place it in a 37° C., 5% CO2 incubator.
(§22) b) The above compound solution was diluted 1:20 times with culture medium to prepare a 10 fold working solution;
(§23) a) Take cells in log phase growth, centrifuge at 1000 rpm for 5 min, then resuspend the cells with culture medium, then count cells;
(§24) b) Cells were seeded to 96-well cell culture plate with density at 2000 cells/well (suitable for H1975 cell) and at 2500 cells/well (suitable for HCC827 cell);
(§25) The blank control well was a culture medium (0.5% DMSO);
(§26) b) The cells were incubated for an additional 72 h in the incubator.
(§27) a) Remove the 96-well cell culture plate and add 50 μl of CTG reagent (CellTiter Glo kit, promega, Cat #G7573).
(§28) b) Plate was shaked for 2 min and then let it cool for 10 min at room temperature.
(§29) c) The Luminescence signal value was read using a PerkinElmer reader.
(§30) Experimental Data Analysis
(§31) Data were analyzed using GraphPad Prism 6.0 software to obtain a fitted curve of compound activity.
(§32) Y=Bottom+(Top−Bottom)/(1+10^((Log IC50−X)*HillSlope));
(§33) The cells proliferation assay results are expressed with IC50, shown as Table 2.

H1975(L858R/T790M) = experiment: H1975 cells proliferation assay; assay type: cell-based; settings: Homo sapiens, NCI-H1975; cell proliferation, 72 h, CellTiter Glo; class symbols; read-out: H1975 IC50
Method: as §16, §17, §18, §19, §20, §21, §22, §23, §24, §25, §26, §27, §28, §29, §30, §31, §32, §33

| IC50 (EGFR Δ19del/T790M/C797S) | IC50 (EGFR L858R) | IC50 (EGFR T790M/L858R) | IC50 (HCC827(Δ19del)) | IC50 (H1975(L858R/T790M)) | Structure (SMILES) |
| --- | --- | --- | --- | --- | --- |
| 10 to 100 nM | 10 to 100 nM | 10 to 100 nM | – | – | C=CC(=O)Nc1cc(Nc2nccc(Nc3ccccc3P(C)(C)=O)n2)c(OC)cc1N1CCC(N2CCN(C)CC2)CC1 [Compound 40, N-(5-((4-((2-(dimethylphosphoryl)phenyl)amino)pyrimidin-2-yl)amino)-4-methoxy-2-(4-(4-methylpiperazin-1-yl)piperidin-1-yl)phenyl)acrylamide] |
| < 10 nM | 10 to 100 nM | < 10 nM | 10 to 50 nM | 10 to 50 nM | C=CC(=O)Nc1cc(Nc2ncc(Cl)c(Nc3ccccc3P(C)(C)=O)n2)c(OC)cc1N1CCC2(CCC(N(C)C)CC2)CC1 [Compound 33, N-(5-(5-chloro-4-(2-(dimethylphosphoryl)phenylamino)pyrimidin-2-ylamino)-2-(9-(dimethylamino)-3-azaspiro[5.5]undecan-3-yl)-4-methoxyphenyl)acrylamide] |
| < 10 nM | 10 to 100 nM | < 10 nM | 10 to 50 nM | < 10 nM | C=CC(=O)Nc1cc(Nc2ncc(Cl)c(Nc3ccccc3P(C)(C)=O)n2)c(OC)cc1N1CCC2(CC1)CC(N(C)C)C2 [Compound 5, N-(5-((5-chloro-4-((2-(dimethylphosphoryl)phenyl)amino)pyrimidin-2-yl)amino)-2-(2-(dimethylamino)-7-azaspiro[3.5]nonan-7-yl)-4-methoxyphenyl)acrylamide] |
| < 10 nM | < 10 nM | < 10 nM | 10 to 50 nM | 10 to 50 nM | C=CC(=O)Nc1cc(Nc2ncc(Cl)c(Nc3ccccc3P(C)(C)=O)n2)ccc1N1CCC2(CC1)CN(C)C2 [Compound 14, N-(5-((5-chloro-4-((2-(dimethylphosphoryl)phenyl)amino)pyrimidin-2-yl)amino)-2-(2-methyl-2,7-diazaspiro[3.5]nonan-7-yl)phenyl)acrylamide hydrochloric acid salt] |
| 10 to 100 nM | < 10 nM | < 10 nM | < 10 nM | 10 to 50 nM | C=CC(=O)Nc1cc(Nc2nccc(Nc3ccccc3P(C)(C)=O)n2)ccc1N(C)CCN(C)C [Compound 37, N-(2-((2-(dimethylamino)ethyl)(methyl)amino)-5-((4-((2-(dimethylphosphoryl)phenyl)amino)pyrimidin-2-yl)amino)phenyl)acrylamide] |
| 10 to 100 nM | 10 to 100 nM | 10 to 100 nM | – | – | C=CC(=O)Nc1cc(Nc2nccc(Nc3ccccc3P(C)(C)=O)n2)ccc1N1CCC(N2CCN(C)CC2)CC1 [Compound 38, N-(5-((4-((2-(dimethylphosphoryl)phenyl)amino)pyrimidin-2-yl)amino)-2-(4-(4-methylpiperazin-1-yl)piperidin-1-yl)phenyl)acrylamide] |
| < 10 nM | 10 to 100 nM | < 10 nM | < 10 nM | – | C=CC(=O)Nc1cc(Nc2ncc(C)c(Nc3ccccc3P(C)(C)=O)n2)c(OC)cc1N1CCC(N2CCN(C)CC2)CC1 [Compound 22, N-(5-((4-((2-(dimethylphosphoryl)phenyl)amino)-5-methylpyrimidin-2-yl)amino)-4-methoxy-2-(4-(4-methylpiperazin-1-yl)piperidin-1-yl)phenyl)acrylamide] |
| < 10 nM | 10 to 100 nM | < 10 nM | – | – | C=CC(=O)Nc1cc(Nc2nccc(Nc3ccccc3P(C)(C)=O)n2)ccc1N1CCC2(CC1)CC(N(C)C)C2 [Compound 4, N-(2-(2-(dimethylamino)-7-azaspiro[3.5]nonan-7-yl)-5-((4-((2-(dimethylphosphoryl)phenyl)amino)pyrimidin-2-yl)amino)phenyl)acrylamide] |
| 10 to 100 nM | < 10 nM | < 10 nM | < 10 nM | 10 to 50 nM | C=CC(=O)Nc1cc(Nc2ncc(F)c(Nc3ccccc3P(C)(C)=O)n2)ccc1N(C)CCN(C)C [Compound 32, N-(2-((2-(dimethylamino)ethyl)(methyl)amino)-5-(4-(2-(dimethylphosphoryl)phenylamino)-5-fluoropyrimidin-2-ylamino)phenyl)acrylamide] |
| < 10 nM | 10 to 100 nM | < 10 nM | – | – | C=CC(=O)Nc1cc(Nc2ncc(Cl)c(Nc3ccccc3P(C)(C)=O)n2)ccc1N1CC2(CCC(N(C)C)CC2)C1 [Compound 2, N-(5-((5-chloro-4-((2-(dimethylphosphoryl)phenyl)amino)pyrimidin-2-yl)amino)-2-(7-(dimethylamino)-2-azaspiro[3.5]nonan-2-yl)phenyl)acrylamide] |
| 10 to 100 nM | < 10 nM | < 10 nM | < 10 nM | 10 to 50 nM | C=CC(=O)Nc1cc(Nc2ncc(C)c(Nc3ccccc3P(C)(C)=O)n2)c(OC)cc1N(C)CCN(C)C [Compound 21, N-(2-((2-(dimethylamino)ethyl)(methyl)amino)-5-((4-((2-(dimethylphosphoryl)phenyl)amino)-5-methylpyrimidin-2-yl)amino)-4-methoxyphenyl)acrylamide] |
| < 10 nM | 10 to 100 nM | < 10 nM | – | – | C=CC(=O)Nc1cc(Nc2ncc(Cl)c(Nc3ccccc3P(C)(C)=O)n2)ccc1N1CC2(CC(N(C)C)C2)C1 [Compound 3, N-(5-((5-chloro-4-((2-(dimethylphosphoryl)phenyl)amino)pyrimidin-2-yl)amino)-2-(6-(dimethylamino)-2-azaspiro[3.3]heptan-2-yl)phenyl)acrylamide] |
| < 10 nM | 10 to 100 nM | < 10 nM | 10 to 50 nM | 10 to 50 nM | C=CC(=O)Nc1cc(Nc2ncc(Cl)c(Nc3ccccc3P(C)(C)=O)n2)ccc1OC1CCN(C)CC1 [Compound 41, N-(5-((5-chloro-4-((2-(dimethylphosphoryl)phenyl)amino)pyrimidin-2-yl)amino)-2-((1-methylpiperidin-4-yl)oxy)phenyl)acrylamide] |
| < 10 nM | 10 to 100 nM | < 10 nM | – | – | C=CC(=O)Nc1cc(Nc2ncc(Cl)c(Nc3ccccc3P(C)(C)=O)n2)c(OC)cc1N1CC2(CCC(N(C)C)CC2)C1 [Compound 26, N-(5-((5-chloro-4-((2-(dimethylphosphoryl)phenyl)amino)pyrimidin-2-yl)amino)-2-(7-(dimethylamino)-2-azaspiro[3.5]nonan-2-yl)-4-methoxyphenyl)acrylamide] |
| 10 to 100 nM | 10 to 100 nM | 10 to 100 nM | 10 to 50 nM | – | C=CC(=O)Nc1cc(Nc2ncc(F)c(Nc3ccccc3P(C)(C)=O)n2)c(OC)cc1N1CCC(N2CCN(C)CC2)CC1 [Compound 28, N-(5-((4-((2-(dimethylphosphoryl)phenyl)amino)-5-fluoropyrimidin-2-yl)amino)-4-methoxy-2-(4-(4-methylpiperazin-1-yl)piperidin-1-yl)phenyl)acrylamide] |
| < 10 nM | 10 to 100 nM | < 10 nM | 10 to 50 nM | – | C=CC(=O)Nc1cc(Nc2ncc(Cl)c(Nc3ccccc3P(C)(C)=O)n2)c(OC)cc1N1CCC(N2CCN(C)CC2)CC1 [Compound 24, N-(5-((5-chloro-4-((2-(dimethylphosphoryl)phenyl)amino)pyrimidin-2-yl)amino)-4-methoxy-2-(4-(4-methylpiperazin-1-yl)piperidin-1-yl)phenyl)acrylamide] |
